The record followed here is patent US20200393345A1, “HEPARIN-BASED BLOOD SAMPLER WITHOUT PLATELET ACTIVATION” (Radiometer Medical ApS, priority 2017, published 2020).

Entries after “also recorded” stand apart in the source; their conditions may differ. Structures can show the parent of a compound that is named as a salt.

Holding throughout (format): cell-based
In assay [1] the test system is platelets. Kind of assay: Manual platelet count (single platelets, platelet aggregates) in heparinized blood with anti-platelet agents, hemocytometer. The following applies: two concentration levels of drug, mixed 15 minutes; for Single platelet count compared to LiHep and PicoSAM controls / Formation of platelet aggregates compared to LiHep and PicoSAM references / Number of platelet aggregates compared to EDTA: venous whole blood in PICO70 samplers with heparin; for Single platelet count compared to EDTA reference: venous whole blood in PICO70 samplers with heparin 60 IU/mL (LiHep or PicoSAM).
Experimental: Each experiment was conducted on a separate day with blood from one voluntary donor testing one anti-platelet drug candidate. For each experiment PICO70 syringe samplers (Radiometer Medical ApS) were prepared just before sample drawing. For “LiHep” (Liquid Heparin) conditions, PICO70 samplers were emptied of the gold ball and heparin brick and 15 μl of aqueous liquid balanced heparin comprising heparin lithium (Celsus Laboratories) and heparin sodium (Celsus Laboratories) (final heparin conc. 60 IU/mL blood) and 15 μl of the solvent of the tested drug were added. For “PicoSAM” conditions, unmodified PICO70 samplers (with gold ball and heparin brick) were used and 15 μl of the solvent of the respective tested drug was added. For “LiHep xxx drug” conditions, PICO70 samplers were emptied as described for LiHep and 15 μl of liquid balanced heparin (final heparin conc. 60 IU/mL blood) and 15 μl of the dissolved tested drug were added. For “PicoSAM xxx drug” conditions, unmodified PICO70 samplers (with gold ball and heparin brick) were used and 15 μl of the dissolved tested drug was added. […] 600 μM and 6 mM) and dipyridamole (Sigma, D9766; dissolved in 1:10 or 1:100 DMSO in saline, final conc. 10 and 100 μM). An EDTA tube (BD Vacutainer with spray-coated K2EDTA, 10 ml) and duplicate samples of all conditions of PICO70 syringe samplers were filled by drawing venous blood via a butterfly needle using a sealed VTC (vented tip cap) to fill the otherwise self-aspirating PICO70 samplers with 1.5 mL venous whole blood. Samplers were inverted 8 times immediately after drawing to insure proper anticoagulation of the samples. The blood samples were mixed gently by hand (samplers without gold ball) or on a SAM mixer (Radiometer Medical ApS) for 15 minutes after drawing the sample. Mixed samples were fixed immediately with 10% formalin solution (1:1 dilution of blood in formalin) for at least 10 minutes and further diluted 1:10 in platelet dilution solution to hemolyze red blood cells (RBCs) to assessed manual platelet count using a hemocytometer. […] Single platelet counts were adjusted for dilution with liquid heparin and or dissolved drug solution to calculate single platelet concentrations.

The subject of assay [2] is platelets. Kind of assay: Wet mount phase-contrast images of fixed blood samples, platelet aggregation. The following applies: fixed venous blood, 40x phase-contrast; eptifibatide 20 μM added to heparin. The text has this:
Venous blood samples drawn, mixed and fixed with 10% formalin solution, as described before in Example 1 were used to prepare wet mounts on a glass slide and covered with a glass coverslip. Wet mount samples of fixed blood cells were then imaged with a Leica 750 microscope using a 40× phase-contrast air objective.

Assay [3] has as its system WBCs (white blood cells) and platelets. The assay is described as follows: Wet mount images of stained and hemolyzed blood samples. The following applies: for Platelets in stained wet mount images (single, aggregated, satellinism) / WBC aggregates in stained wet mount images: PicoSAM samples, 1 μM tirofiban, 20 μM eptifibatide, 100 nM iloprost. The method, then:
Venous blood samples were drawn and mixed as described before in Example 1 and used to prepare stained wet mounts images. Blood samples were mixed with a staining and hemolyzing agent (methylene blue and deoxycholic acid, respectively) and incubated at 47° C. in a water bath for 30 seconds. Stained and hemolyzed blood samples were then prepared in wet mount samples on a glass slide and covered with a glass coverslip. Images of stained samples were then acquired with a Leica 750 microscope using a 40× air objective in bright field mode. An image processing software (FIJI, ImageJ) was used to select regions of interest (ROIs) of representative stained WBCs from the images.

Turning to `OCCN(CCO)c1nc(N2CCCCC2)c2nc(N(CCO)CCO)nc(N3CCCCC3)c2n1` [Dipyridamole, dipyridamole], the “Single platelet count compared to LiHep and PicoSAM controls” value with platelets [1] is recorded as “slightly higher platelet number”.

For the compound `O=C(O)CN(CCN(CC(=O)O)CC(=O)O)CC(=O)O` [EDTA, Ethylenediaminetetraacetic acid], in the assay with platelets [2], the “Platelet aggregates in microscopic images” value was “prevents platelet activation and maintains single platelets; also recorded: cannot be seen”. For the same compound, in assay [3], the “Platelets in stained wet mount images (single, aggregated, satellinism)” value (from here on “Platelets in stained wet mount images”) is “same results” and the “WBC aggregates in stained wet mount images” value (shortened to “WBC aggregates”) is “same results”.

As to `CC#CCC(C)[C@H](O)/C=C/[C@@H]1[C@H]2C/C(=C/CCCC(=O)O)C[C@H]2C[C@H]1O` (stereo partly drawn) [Iloprost, iloprost], in the assay with platelets [1], the “Single platelet count compared to EDTA reference” value was “comparable to standard EDTA anticoagulated blood”; the “Formation of platelet aggregates compared to LiHep and PicoSAM references” value is on record as “reduced the formation of platelet aggregates”; the “Number of platelet aggregates compared to EDTA” value (shortened to “Number … compared to EDTA”) was “no or few aggregates”. In assay [3], the “Platelets in stained wet mount images” value is on record as “single platelets, not platelet satellinism” and the “WBC aggregates” value is “not platelet satellinism or WBC aggregates”. In addition, the “WBC aggregation in the blood sample (leukocyte activation)” value in assay [3] (statement in the description) was “very low WBC aggregation”.

As for `N=C(N)NCCC[C@H](N)C(=O)O` [L-Arginine], in the assay with platelets [1], the “Single platelet count compared to EDTA reference” value was “decreased number of platelets”; the “Number … compared to EDTA” value is listed as “higher number of platelet aggregates”; the “Single platelet count compared to LiHep and PicoSAM controls” value is listed as “slightly higher platelet count”.

In the case of `O=S(=O)([O-])[O-].[Mg+2]` [MgSO4], the “Formation of platelet aggregates compared to LiHep and PicoSAM references” value with platelets [1] is “reduced the formation of platelet aggregates”.

Take `Clc1ccccc1CN1CCc2sccc2C1` [Ticlopidine LiHep, ticlopidine hydrochloride]: in the assay on platelets [1], the “Formation of platelet aggregates compared to LiHep and PicoSAM references” value is “slightly reduced number of aggregates”.

On to `CCCCS(=O)(=O)N[C@@H](Cc1ccc(OCCCCC2CCNCC2)cc1)C(=O)O` [Tirofiban, tirofiban hydrochloride monohydrate], for which, in the assay on platelets [1], the “Single platelet count compared to EDTA reference” value is listed as “comparable to standard EDTA anticoagulated blood”; the “Formation of platelet aggregates compared to LiHep and PicoSAM references” value is listed as “reduced the formation of platelet aggregates”; the “Number … compared to EDTA” value is recorded as “no or few aggregates”. In assay [3], the “Platelets in stained wet mount images” value is listed as “single platelets but also platelet satellinism” and the “WBC aggregates” value is reported as “WBC aggregates were also observed”.

Regarding eptifibatide acetate, in the assay with platelets [1], the “Single platelet count compared to EDTA reference” value is reported as “comparable to standard EDTA anticoagulated blood”; the “Formation of platelet aggregates compared to LiHep and PicoSAM references” value is recorded as “reduced the formation of platelet aggregates”; the “Number … compared to EDTA” value is “no or few aggregates”. For the same compound, the “Platelet aggregates in microscopic images” value in the assay on platelets [2] is recorded as “cannot be observed; also recorded: cannot be seen”. Further, in assay [3], the “Platelets in stained wet mount images” value is “single platelets but also platelet satellinism” and the “WBC aggregates” value is reported as “WBC aggregates were also observed”.

For heparin, the “Platelet aggregates in microscopic images” value with platelets [2] is on record as “allows or even potentiates platelet aggregation; also recorded: showed platelet aggregates”.
